In general, Ki refers to a measure of affinity in units of concentration, obtained from inhibition or displacement. A higher Ki goes with lower affinity.

The test concerns the target TSPO (Homo sapiens, UniProt P30536). Put plainly: protein binding capacity for TSPO. How it is done: In order to find the conjugation position of IR780, a photosensitizer according to Example of the present invention, and an imidazopyridine derivative, a molecular docking simulation was performed. […] Accordingly, the compound of the present invention, a compound targeting mitochondria in cancer cells, was designed and synthesized so that IR780 was introduced by selecting a position (position Y in FIG. 1B) where steric hindrance is not expected, and then its protein binding capacity was measured.

Chain of TSPO (P30536 whole entry): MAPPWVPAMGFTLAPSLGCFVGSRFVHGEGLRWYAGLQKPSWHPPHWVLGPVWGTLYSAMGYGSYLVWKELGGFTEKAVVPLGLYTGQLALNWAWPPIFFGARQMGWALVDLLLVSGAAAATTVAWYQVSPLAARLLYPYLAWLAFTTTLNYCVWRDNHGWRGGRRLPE

In turn, `CCCN(CCC)C(=O)Cc1c(-c2ccc(Cl)cc2)nc2c(NC(=S)Nc3ccc(SC4=C(/C=C/C5=[N+](CCC)c6ccccc6C5(C)C)CCC/C4=C\C=C4\N(CCC)c5ccccc5C4(C)C)cc3)cccn12` came in with a Ki of 201 nM.

(Values after patent US20250360218A1, “MITOCHONDRIA-TARGETING CANCER THERAPEUTIC COMPOSITION” (Seoul National University R&DB Foundation, priority 2022, published 2025).)
